Test results from the NIST ThermoML archive (doi:10.1016/j.jct.2003.11.007).
± gives the expanded uncertainty stated by the source.

What was measured:
[1] = 101.33 kPa, Liquid
[2] = xn = mol fraction of the nth substance listed; details: 101.3 kPa, Liquid

CCOC(=O)OCC [diethyl carbonate]
[1]
Details	mass density [kg/m3]
288.15 K	980.29 ± 0.87
293.15 K	974.57 ± 0.91
298.15 K	969.07 ± 0.95
303.15 K	963.6 ± 1
308.15 K	957.98 ± 1
318.15 K	947.67 ± 1.1
328.15 K	935.12 ± 1.2

CCOC(=O)OCC [diethyl carbonate] + CCCCCCCCCCCC
[2]
Details	mass density [kg/m3]
288.15 K, x1 = 0.1242	766.85 ± 0.74
288.15 K, x1 = 0.2013	776.91 ± 0.73
288.15 K, x1 = 0.2481	783.48 ± 0.71
288.15 K, x1 = 0.309	792.61 ± 0.7
288.15 K, x1 = 0.4053	808.61 ± 0.67
288.15 K, x1 = 0.5069	827.83 ± 0.64
288.15 K, x1 = 0.603	848.75 ± 0.61
288.15 K, x1 = 0.7026	873.85 ± 0.57
288.15 K, x1 = 0.8014	903.1 ± 0.53
288.15 K, x1 = 0.8997	937.64 ± 0.47
288.15 K, x1 = 0.9501	958.03 ± 0.42
293.15 K, x1 = 0.1018	760.24 ± 0.76
293.15 K, x1 = 0.2018	772.97 ± 0.73
293.15 K, x1 = 0.2513	779.88 ± 0.72
293.15 K, x1 = 0.3056	787.96 ± 0.7
293.15 K, x1 = 0.4094	805.05 ± 0.67
293.15 K, x1 = 0.5064	823.29 ± 0.64
293.15 K, x1 = 0.604	844.35 ± 0.6
293.15 K, x1 = 0.7024	868.92 ± 0.55
293.15 K, x1 = 0.8026	898.28 ± 0.5
293.15 K, x1 = 0.9022	933.11 ± 0.45
293.15 K, x1 = 0.9498	952.23 ± 0.42
298.15 K, x1 = 0.1025	756.57 ± 0.76
298.15 K, x1 = 0.2042	769.39 ± 0.73
298.15 K, x1 = 0.2522	776.01 ± 0.72
298.15 K, x1 = 0.3009	783.17 ± 0.71
298.15 K, x1 = 0.4041	799.89 ± 0.67
298.15 K, x1 = 0.5027	818.2 ± 0.64
298.15 K, x1 = 0.6059	840.28 ± 0.6
298.15 K, x1 = 0.7074	865.61 ± 0.55
298.15 K, x1 = 0.799	892.28 ± 0.51
298.15 K, x1 = 0.8994	926.96 ± 0.45
298.15 K, x1 = 0.9513	947.6 ± 0.42
303.15 K, x1 = 0.1013	752.68 ± 0.77
303.15 K, x1 = 0.2027	765.3 ± 0.74
303.15 K, x1 = 0.2521	772.06 ± 0.73
303.15 K, x1 = 0.3003	779.07 ± 0.71
303.15 K, x1 = 0.4041	795.74 ± 0.68
303.15 K, x1 = 0.4993	813.2 ± 0.65
303.15 K, x1 = 0.605	835.58 ± 0.61
303.15 K, x1 = 0.7035	859.82 ± 0.56
303.15 K, x1 = 0.7993	887.45 ± 0.52
303.15 K, x1 = 0.8999	921.93 ± 0.46
303.15 K, x1 = 0.9508	942.05 ± 0.43
308.15 K, x1 = 0.1049	749.28 ± 0.77
308.15 K, x1 = 0.2059	761.76 ± 0.74
308.15 K, x1 = 0.2441	766.93 ± 0.73
308.15 K, x1 = 0.3043	775.59 ± 0.72
308.15 K, x1 = 0.4026	791.26 ± 0.69
308.15 K, x1 = 0.5062	810.2 ± 0.65
308.15 K, x1 = 0.6032	830.59 ± 0.62
308.15 K, x1 = 0.7045	855.29 ± 0.57
308.15 K, x1 = 0.8015	883.09 ± 0.52
308.15 K, x1 = 0.9005	916.79 ± 0.46
308.15 K, x1 = 0.9507	936.48 ± 0.43
318.15 K, x1 = 0.1041	741.75 ± 0.78
318.15 K, x1 = 0.1989	753.22 ± 0.76
318.15 K, x1 = 0.2492	759.89 ± 0.75
318.15 K, x1 = 0.3079	768.25 ± 0.73
318.15 K, x1 = 0.4075	783.98 ± 0.7
318.15 K, x1 = 0.5	800.6 ± 0.67
318.15 K, x1 = 0.6026	821.73 ± 0.63
318.15 K, x1 = 0.7001	845.05 ± 0.59
318.15 K, x1 = 0.7995	872.99 ± 0.54
318.15 K, x1 = 0.8973	905.76 ± 0.48
318.15 K, x1 = 0.9485	925.55 ± 0.45
328.15 K, x1 = 0.1023	733.88 ± 0.8
328.15 K, x1 = 0.2027	745.71 ± 0.77
328.15 K, x1 = 0.2498	751.81 ± 0.76
328.15 K, x1 = 0.3042	759.33 ± 0.74
328.15 K, x1 = 0.3984	773.69 ± 0.71
328.15 K, x1 = 0.5099	793.25 ± 0.68
328.15 K, x1 = 0.6045	812.43 ± 0.64
328.15 K, x1 = 0.7037	835.73 ± 0.59
328.15 K, x1 = 0.7992	862.04 ± 0.55
328.15 K, x1 = 0.8987	894.71 ± 0.5
328.15 K, x1 = 0.9506	914.36 ± 0.48

COC(=O)OC [dimethyl carbonate]
[1]
Details	mass density [kg/m3]
288.15 K	1076.43 ± 0.87
293.15 K	1069.95 ± 0.86
298.15 K	1063.26 ± 0.83
303.15 K	1056.61 ± 0.81
308.15 K	1050.01 ± 0.79
318.15 K	1036.65 ± 0.75
328.15 K	1022.92 ± 0.72

CCCCCCCCCCCC [dodecane]
[1]
Details	mass density [kg/m3]
288.15 K	752.44 ± 0.78
293.15 K	748.8 ± 0.79
298.15 K	745.19 ± 0.79
303.15 K	741.57 ± 0.8
308.15 K	737.93 ± 0.81
318.15 K	730.7 ± 0.82
328.15 K	723.32 ± 0.83

CCCCCCCCCCCC [dodecane] + COC(=O)OC
[2]
Details	mass density [kg/m3]
288.15 K, x2 = 0.1	763.29 ± 0.76
288.15 K, x2 = 0.1984	775.97 ± 0.75
288.15 K, x2 = 0.2519	783.82 ± 0.74
288.15 K, x2 = 0.2998	791.48 ± 0.73
288.15 K, x2 = 0.3943	808.72 ± 0.71
288.15 K, x2 = 0.9498	1031.65 ± 0.61
293.15 K, x2 = 0.0994	759.42 ± 0.77
293.15 K, x2 = 0.2008	772.33 ± 0.75
293.15 K, x2 = 0.2474	779.08 ± 0.74
293.15 K, x2 = 0.2967	786.85 ± 0.73
293.15 K, x2 = 0.3962	804.76 ± 0.71
293.15 K, x2 = 0.9006	989.35 ± 0.58
293.15 K, x2 = 0.9507	1026.33 ± 0.61
298.15 K, x2 = 0.1015	755.81 ± 0.77
298.15 K, x2 = 0.1968	767.75 ± 0.76
298.15 K, x2 = 0.2518	775.63 ± 0.75
298.15 K, x2 = 0.3057	784.12 ± 0.74
298.15 K, x2 = 0.4019	801.57 ± 0.72
298.15 K, x2 = 0.4976	822.41 ± 0.72
298.15 K, x2 = 0.5975	849.03 ± 0.71
298.15 K, x2 = 0.7026	884.3 ± 0.7
298.15 K, x2 = 0.7991	925.9 ± 0.71
298.15 K, x2 = 0.9011	984.3 ± 0.59
298.15 K, x2 = 0.9512	1020.8 ± 0.61
303.15 K, x2 = 0.0995	751.67 ± 0.78
303.15 K, x2 = 0.195	763.42 ± 0.76
303.15 K, x2 = 0.2498	771.18 ± 0.75
303.15 K, x2 = 0.3315	784.26 ± 0.74
303.15 K, x2 = 0.3999	796.8 ± 0.72
303.15 K, x2 = 0.4997	818.35 ± 0.7
303.15 K, x2 = 0.6015	845.3 ± 0.68
303.15 K, x2 = 0.6974	876.92 ± 0.65
303.15 K, x2 = 0.798	919.35 ± 0.62
303.15 K, x2 = 0.8988	976.31 ± 0.59
303.15 K, x2 = 0.9497	1012.95 ± 0.61
308.15 K, x2 = 0.0998	747.85 ± 0.78
308.15 K, x2 = 0.1992	759.93 ± 0.77
308.15 K, x2 = 0.2486	766.84 ± 0.76
308.15 K, x2 = 0.2938	773.75 ± 0.75
308.15 K, x2 = 0.4017	792.74 ± 0.73
308.15 K, x2 = 0.5014	814.12 ± 0.71
308.15 K, x2 = 0.5995	839.81 ± 0.69
308.15 K, x2 = 0.6978	871.92 ± 0.66
308.15 K, x2 = 0.7983	914.04 ± 0.63
308.15 K, x2 = 0.9004	971.25 ± 0.6
308.15 K, x2 = 0.9494	1006.38 ± 0.6
318.15 K, x2 = 0.1003	740.31 ± 0.79
318.15 K, x2 = 0.2044	752.75 ± 0.78
318.15 K, x2 = 0.251	759.14 ± 0.77
318.15 K, x2 = 0.3042	767.18 ± 0.76
318.15 K, x2 = 0.401	783.99 ± 0.74
318.15 K, x2 = 0.4988	804.44 ± 0.72
318.15 K, x2 = 0.6028	831.06 ± 0.69
318.15 K, x2 = 0.6973	861.26 ± 0.66
318.15 K, x2 = 0.8023	904.51 ± 0.63
318.15 K, x2 = 0.8976	956.98 ± 0.6
318.15 K, x2 = 0.9497	993.69 ± 0.59
328.15 K, x2 = 0.0924	731.92 ± 0.81
328.15 K, x2 = 0.2	744.23 ± 0.79
328.15 K, x2 = 0.25	750.88 ± 0.78
328.15 K, x2 = 0.3	758.18 ± 0.77
328.15 K, x2 = 0.4007	775.11 ± 0.75
328.15 K, x2 = 0.5003	795.39 ± 0.73
328.15 K, x2 = 0.6158	824.8 ± 0.69
328.15 K, x2 = 0.7057	853.75 ± 0.66
328.15 K, x2 = 0.7855	885.61 ± 0.62
328.15 K, x2 = 0.8981	945.23 ± 0.58
328.15 K, x2 = 0.9483	979.79 ± 0.59
